Measured values published in patent publication US20260085034A1, “N-(BENZHYDRYL)CYCLOALKYLCARBOXAMIDE DERIVATIVES AS INHIBITORS OF GLYCOGEN SYNTHASE 1 (GYS1) AND METHODS OF USE THEREOF” (Maze Therapeutics, Inc., priority 2022, published 2026).

Target: T1, recombinant hGYS1/GN1 protein (Homo sapiens, UniProt P13807)
T1 sequence (P13807 1-737): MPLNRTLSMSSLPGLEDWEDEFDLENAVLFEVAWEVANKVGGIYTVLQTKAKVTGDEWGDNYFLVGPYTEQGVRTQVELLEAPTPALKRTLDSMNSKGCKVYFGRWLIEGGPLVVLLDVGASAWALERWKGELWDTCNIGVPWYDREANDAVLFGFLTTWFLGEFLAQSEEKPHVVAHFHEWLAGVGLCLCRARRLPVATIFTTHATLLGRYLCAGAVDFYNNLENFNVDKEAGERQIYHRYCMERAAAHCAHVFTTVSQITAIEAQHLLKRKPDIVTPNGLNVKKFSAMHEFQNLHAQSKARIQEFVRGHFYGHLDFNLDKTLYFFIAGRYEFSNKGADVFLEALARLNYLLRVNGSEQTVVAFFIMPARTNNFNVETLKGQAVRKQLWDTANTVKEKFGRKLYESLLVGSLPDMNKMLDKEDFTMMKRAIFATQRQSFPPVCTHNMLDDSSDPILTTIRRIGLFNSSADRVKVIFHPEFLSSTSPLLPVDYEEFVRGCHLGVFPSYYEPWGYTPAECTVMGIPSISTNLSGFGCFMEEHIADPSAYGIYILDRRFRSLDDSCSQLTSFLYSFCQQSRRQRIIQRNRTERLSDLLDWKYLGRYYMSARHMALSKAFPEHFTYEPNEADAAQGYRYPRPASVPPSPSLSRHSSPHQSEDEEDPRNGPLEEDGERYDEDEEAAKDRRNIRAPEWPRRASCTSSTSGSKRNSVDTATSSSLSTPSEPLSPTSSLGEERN
T1 sequence (P46976 1-350 partner): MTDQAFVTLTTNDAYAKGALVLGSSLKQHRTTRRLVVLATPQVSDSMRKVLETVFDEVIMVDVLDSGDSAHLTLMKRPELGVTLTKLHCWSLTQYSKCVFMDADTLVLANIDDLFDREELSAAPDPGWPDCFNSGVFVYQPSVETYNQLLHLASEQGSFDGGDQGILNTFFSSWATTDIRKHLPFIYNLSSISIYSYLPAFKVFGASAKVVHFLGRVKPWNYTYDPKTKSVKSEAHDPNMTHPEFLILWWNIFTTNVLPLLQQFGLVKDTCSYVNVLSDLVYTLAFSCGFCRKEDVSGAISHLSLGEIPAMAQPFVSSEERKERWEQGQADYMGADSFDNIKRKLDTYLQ
Test: GYS1 coupled enzyme assay (PK/LDH)
Format: biochemical
Details: geometric mean of at least 2 assay runs; NADH absorbance at 340 nm
In short: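 Recombinant hGYS1/GN1 (50 nM) with 0.8 mM UDP-glucose, 0.2% glycogen and 1 mM glucose-6-phosphate in Tris pH 7.5, 2.5% DMSO. UDP formation coupled via PK/LDH to NADH oxidation, read at 340 nm over 10 min. Control-normalized slopes fit to Hill equation; IC50 as geometric mean of ≥2 runs.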

IC50: 145 nM
Compound: CC(C)c1ccc([C@@H](NC(=O)[C@H]2C[C@@H]2F)c2ccn[nH]2)cc1F (single isomer, unassigned) [compound 11]
